Data from patent US12139505B2, “Compositions useful in therapy of autophagy-related pathologies, and methods of making and using the same” (The University of Toledo, priority 2017, dated 2024).
Entries after “also recorded” stand apart in the source; their conditions may differ.

What was measured:
SH-SY5Y cells = assay: Western blot for LC3-II (autophagy induction with bafilomycin-A1); assay type: cell-based, human
Experimental: (FIG. 35B). […] In a dose dependent manner with a maximum of 6 μM.
2-n-hexyl-LKE-P drug solutions in CCM from 0.1 to 100 μM were prepared as above for the viability assay except that the drug solutions contained 10 nM bafilomycin A1. For positive control: 50 nM rapamycin in CCM containing 10 nM bafilomycin A1 was used. For negative control: 1 μL of DMSO is dissolved in every 100 μL of CCM containing 10 nM bafilomycin A1. When SH-SY5Y cells were 85-90% confluent, 300,000 cells per well were seeded into 12-well plates. Cells were exposed to four concentrations of 2-n-hexyl-LKE-P, positive control and negative control for 4 hours at 37° C. in 5% CO2 in air atmosphere. Subsequently, the cells were washed with PBS, next, 0.25% Trypsin/EDTA was used to aid in detaching the cells and CCM was then added to neutralize the Trypsin/EDTA and wash the cells from the dish. Washed cells were collected in a centrifuge tube for concentration. After centrifugation at 2000 RPM for 5 minutes, the cells were re-suspended in PBS and re-centrifuged to pellets. The supernatant was then discarded and the cell pellets were frozen in −20° C. freezer. 50 μL lysis buffer (RIPA buffer plus, 1 mM sodiumorthovanadate, 5 mM β-glycerophosphate and 1:200 mammalian protease inhibitor cocktail) was added to the cells and the cells were re-suspended in the lysis buffer. […] The membranes were then ready for imaging.

PINK1^B9 flies [1] = assay: Fly longevity (survival) assay; assay type: in vivo, Drosophila melanogaster
Experimental: 2-n-hexyl-LKE-P was dissolved in DMSO and supplemented into a warm solution of minimal media (5% sucrose, 2% agarose and water, 60° C.) to a final concentration of 10, 100 and 1000 μM. Freshly eclosed adult flies were transferred to minimal media containing the drug for one day followed by the experiments. 15 flies from each group were placed in a vial containing food, kept on its side to prevent the flies from sticking to the media, at 23° C., 60% humidity, under a 12-h light-dark cycle. Food vials were changed every 2-3 days and the dead flies were counted daily. Over 100 flies were prepared for each genotype and the experiments were carried out three times. The number of surviving flies on each day was converted to surviving days for each fly and imported to GraphPad Prism. Kaplan-Meier surviving curves were graphed and statistics was performed by log-rank test on the surviving data to compare the longevity with different treatment.

PINK1^B9 flies [2] = assay: Fly sleep behavior; assay type: in vivo, Drosophila melanogaster
Experimental: 2-n-hexyl-LKE-P was dissolved in DMSO and supplemented into a warm solution of minimal media (5% sucrose, 2% agarose and water, 60° C.) to a final concentration of 10, 100 and 1000 μM. Freshly eclosed adult flies were transferred to minimal media containing the drug for one day followed by the experiments. Flies were transferred individually, under CO2 anesthesia, into 5 mm×65 mm (outside diameter×length) polycarbonate recording tubes with food on one end and yarn plugs on the other. Sleep parameters were continuously evaluated using the TriKinetics Drosophila activity monitoring system. Sleep is defined as 5 min or more of continuous inactivity, the minimum amount of time to qualify as a single sleep bout. Zeitgeber time (ZT) 0 is defined as the time of lights on, and ZT12 is defined as the time of lights off. Mobility (activity) was also monitored and data tabulated based on the number of beam counts, and diurnal variations were calculated. The sleep and mobility data were collected and analyzed.

For `CCCCCCC1=C(P(=O)(O)O)N[C@H](C(=O)OCC)CS1` [2-n-hexyl-LKE-P], the “autophagy stimulation (LC3-I, LC3-II)” value (SH-SY5Y cells; in the presence of bafilomycin-A1) was “stimulates autophagy in a dose dependent manner; also recorded: able to stimulate autophagy”, the “concentration of maximum autophagy stimulation” value (SH-SY5Y cells; in the presence of bafilomycin-A1, 0.1 to 10 μM tested) was 6 µM and the “survival of PINK1^B9 flies” value (PINK1^B9 flies [1]; 10 μM in media) was “did not significantly affect the survival”. The “survival of PINK1^B9 flies” value (PINK1^B9 flies [1]; 100 μM in media) was “did not significantly affect the survival”, the “lifespan of PINK1^B9 flies” value (PINK1^B9 flies [1]; 1000 μM in media) was “extended the lifespan; also recorded: significantly increased the PINK1^B9 lifespan” and the “lifespan of PINK1^B9 flies” value (PINK1^B9 flies [1]; dose not stated (summary)) was “more than double the lifespan”. For the same compound, the “sleep of treated wild-type flies versus vehicle-treated wild-type flies” value (PINK1^B9 flies [2]; Day 1 or Day 8) was “No differences were observed”, the “daytime sleep of PINK1^B9 flies” value (PINK1^B9 flies [2]; day 1, 1000 μM) was “did not change the sleeping pattern and the daytime sleeping time; also recorded: did not show any changes” and the “daytime sleep of PINK1^B9 flies” value (PINK1^B9 flies [2]; day 8 (one week), 1000 μM) was “decreased the daytime sleeping time; also recorded: reversal of excessive daytime sleep”.
